Assay: Clinical study in patients with ischemic heart disease, peroral, 4 weeks
Format: in vivo, men and women (patients with IHD)
Conditions: for hemodynamic impact: before treatment 14.6 + 1.2; for pulse pressure: before treatment 47.6 + 0.6; for isometric contraction: before treatment 53 + 2; for asynchron. contraction: before treatment 56 + 2; for distolic pressure: before treatment 68.2 + 0.6; for heart rate: before treatment 72.3 + 1.5; for average dynamic pressure: before treatment 89.7 + 1.2; for tension period: before treatment 109 + 4; for lateral systolic pressure: before treatment 115.8 + 0.5; for final systolic pressure: before treatment 130.4 + 2.0; for expulsion phase: before treatment 222 + 4; for rate of heart relaxation: before treatment 250 + 9; for volume of heart ejection: before treatment 315 + 15; for diastol.: before treatment 499 + 14; for involution period: before treatment 830 + 26; for rate of pressure raise: before treatment 1,188 + 30
Source text: The following hemodynamic parameters were studied: rate of the heart's beat (RHB), electrocardiogram (ECG), all types of arterial pressure with the curve recording on a Mechanocardiograph 063 (Savitsky's model), beat ejection according to the Wremser-Ranke method, speed of pulse wave propagation, phase analysis of the left ventricle systole on an instrument Mingograph M-34, as well as amplitude time parameters (volume rate of ejection VRE, speed of pressure growth (SPG), rate of heart relaxation (RHR)).
For evaluation of contraction properties of myocardium separately during its systolic and diastolic periods of contraction there were used amplitude-time characteristics rate of heart ejection (RHE), rate of pressure rise (RPR) and rate of heart relaxation (RHR).
The rate of heart ejection (RHE) is determined by the formula: (BV6/E), wherein BV--beat volume in ml, E--time of the expulsion phase in seconds.
The rate of pressure rise is determined by the formula: [formula] wherein DP--diastolic pressure in mm, Hg, 5--conventional value of the final diastolic pressure in the aorta, IC--isometric contraction. RPR characterized contractive properties of the myocardium during the period of closed valves and its ability to rapidly surpass the value of pressure in the aorta for opening of the aortic valves.
The rate of heart relaxation (RHR) characterizes activity of the myocardium at the moment of diastole and is determined by the formula [formula] wherein SP--systolic pressure in the brachial artery in mm Hg, 5--conventional value of the final diastolic pressure in the aorta, D--duration of the diastolic period in seconds.

C[N+](C)(C)NCCC(=O)[O-] [3-(2,2,2-trimethylhydrazinium)propionate]
hemodynamic impact (1st week): 18.2 + 1.0 | pulse pressure (1st week): 46.5 + 1.1 | isometric contraction (1st week): 49 + 3 millisec. | asynchron. contraction (1st week): 55 + 4 | distolic pressure (1st week): 69.9 + 1.3 | heart rate (1st week): 67.8 + 1.8 beat/min | average dynamic pressure (1st week): 90.6 + 0.7 | tension period (1st week): 104 + 2 milliseconds | lateral systolic pressure (1st week): 116.4 + 2.1 | final systolic pressure (1st week): 134.6 + 1.6 mm/Hg | expulsion phase (1st week): 225 + 2 milliseconds | rate of heart relaxation (1st week): 238 + 10 mm Hg/sec | volume of heart ejection (1st week): 320 + 23 ml/sec | diastol. (1st week): 543 + 21 milliseconds | involution period (1st week): 873 + 33 | rate of pressure raise (1st week): 1,326 + 45 mm Hg/sec | hemodynamic impact (2nd week): 24.6 + 0.7 | pulse pressure (2nd week): 48.6 + 1.6 | isometric contraction (2nd week): 46 + 4 millisec. | asynchron. contraction (2nd week): 54 + 2 | distolic pressure (2nd week): 70.3 + 0.9 | heart rate (2nd week): 64.3 + 1.3 beat/min | average dynamic pressure (2nd week): 91.2 + 1.2 | tension period (2nd week): 100 + 4 milliseconds | lateral systolic pressure (2nd week): 118.9 + 1.7 | final systolic pressure (2nd week): 143.5 + 1.8 mm/Hg | expulsion phase (2nd week): 230 + 3 milliseconds | rate of heart relaxation (2nd week): 229 + 8 mm Hg/sec | volume of heart ejection (2nd week): 322 + 13 ml/sec | diastol. (2nd week): 603 + 21 milliseconds | involution period (2nd week): 933 + 42 | rate of pressure raise (2nd week): 1,473 + 130 mm Hg/sec | hemodynamic impact (3rd week): 24.9 + 1.5 | pulse pressure (3rd week): 47.8 + 1.4 | isometric contraction (3rd week): 43 + 2 millisec. | asynchron. contraction (3rd week): 56 + 4 | distolic pressure (3rd week): 72.3 + 1.4 | heart rate (3rd week): 60.1 + 1.6 beat/min | average dynamic pressure (3rd week): 92.0 + 1.8 | tension period (3rd week): 99 + 3 milliseconds | lateral systolic pressure (3rd week): 120.1 + 1.4 | final systolic pressure (3rd week): 145.0 + 2.4 mm/Hg | expulsion phase (3rd week): 232 + 4 milliseconds | rate of heart relaxation (3rd week): 209 + 8 mm Hg/sec | volume of heart ejection (3rd week): 374 + 14 ml/sec | diastol. (3rd week): 669 + 14 milliseconds | involution period (3rd week): 1000 + 42 | rate of pressure raise (3rd week): 1,581 + 54 mm Hg/sec | hemodynamic impact (4th week): 25.0 + 0.7 | pulse pressure (4th week): 53.6 + 1.2 | isometric contraction (4th week): 33 + 2 millisec. | asynchron. contraction (4th week): 55 + 3 | distolic pressure (4th week): 72.0 + 1.8 | heart rate (4th week): 62.2 + 1.4 beat/min | average dynamic pressure (4th week): 92.2 + 1.0 | tension period (4th week): 88 + 2 milliseconds | lateral systolic pressure (4th week): 125.6 + 0.7 | final systolic pressure (4th week): 150.6 + 2.7 mm/Hg | expulsion phase (4th week): 235 + 3 milliseconds | rate of heart relaxation (4th week): 226 + 12 mm Hg/sec | volume of heart ejection (4th week): 357 + 17 ml/sec | diastol. (4th week): 642 + 14 milliseconds | involution period (4th week): 965 + 21 | rate of pressure raise (4th week): 2,030 + 68 mm Hg/sec | Arterial pressure (peroral): growth of all types of AP | Electrocardiographic findings (peroral): slight decrease of the rate of the heart's beat, disappearance of auricular and ventricular extrasystoles, reinversion of the T ripple and increase of its positive amplitude | Phase analysis of the left ventricle (peroral, during the treatment): the involution period T was definitely increased, the phase of expulsion E was reduced, the period of tension PT shortened | Improvement of patients' state (peroral, first week): considerable improvement of the patients' state of health
